# Test results reported in patent US20240000814A1, “TREATING ALCOHOL USE DISORDER USING PSILOCYBIN” (New York University, priority 2022, published 2024).
# Columns and labels:
# Assay type in all cases: in vivo, human
# AUD patients [1] = assay: Subjective effects of study medication, Mystical Experience Questionnaire (MEQ)
# Experimental: Subjective effects of psilocybin vs. diphenhydramine were assessed using the States of Consciousness Questionnaire,^42 containing the 43-item Mystical Experience Questionnaire (MEQ), completed immediately after each medication session.
# MEQ scores for the first and second medication sessions were computed and contrasted by group (psilocybin vs. diphenhydramine) using t-tests for independent samples.
# AUD patients [2] = assay: Safety: blood pressure, heart rate and adverse events in the trial
# Experimental: Blood pressure and heart rate were assessed at 30- to 60-minute intervals during the first 6 hours of each medication session. Adverse events were solicited at each post-screening assessment.
# Blood pressure and heart rate treatment contrasts were based on MMRM with fixed, categorical effects of treatment and assessment, a treatment-by-assessment interaction, and a fixed covariate (value of each outcome prior to drug administration). All adverse events occurring after informed consent were MedDRA-coded and tabulated, and prevalence within treatment groups (proportion of participants affected) was compared using Fisher's exact tests.
# AUD patients [3] = assay: Drinking-related problems, Short Index of Problems (SIP-2R); conditions: week 36
# Source text: The pre-specified primary drinking outcome was the percentage of heavy drinking days (PH DD) during […], assessed at weeks 8, 12, 24, and 36 using the timeline followback, a reliable and valid calendar-based method which is the gold standard outcome for AUD clinical trials.^43-47 Secondary outcomes included percent drinking days (PDD), average drinks per day (DPD), and dichotomous outcomes: abstinence, lack of heavy drinking days, and reduction in World Health Organization risk level^48 by one, two, or three levels. Hair or fingernail samples were collected at week 24 and assayed for ethylglucuronide (EtG) concentration to confirm self-reported abstinence. The Short Index of Problems (SIP-2R)^49 was used to assess drinking-related problems at baseline and weeks 12, 24, and 36.
# Treatment contrasts for dichotomous outcomes were obtained using Chi-squared statistics. Effects of treatment on problems related to drinking were compared using univariate mixed models for repeated measures (MMRM) and generalized linear models. Hedges'g was computed as a measure of effect size for between- and within-group differences on continuous outcomes, and odds ratios were computed for dichotomous outcomes. No correction was made for multiple comparisons, so analyses of secondary outcomes should be considered exploratory.
# [4] = 32 weeks following the first administration of study medication
# [5] = treatment-emergent, within 48 hours of study drug administration
smiles,measurement,setting,value
"CN(C)CCc1c[nH]c2cccc(OP(=O)(O)O)c12 [Psilocybin, [3-[2-(dirnethylamino)ethyl]-1H-indo1-4-yl] dihydrogen phosphate]",Mean MEQ score,"AUD patients [1]; Session 1, psilocybin 25 mg/70 kg or diphenhydramine 50 mg",0.59 (SD=0.24)
same,Mean MEQ score,"AUD patients [1]; Session 2, psilocybin 25-40 mg/70 kg or diphenhydramine 50-100 mg",0.64 (SD=0.21)
same,"Adverse events reported, number",AUD patients [2]; [4],119
same,Serious adverse events,AUD patients [2]; [4],no serious adverse events
same,Time by which blood pressure was no longer significantly elevated,AUD patients [2]; after drug administration,≤ 360 min
same,Time until which heart rate was higher,AUD patients [2]; after drug administration,approximately 300 minutes
same,Anxiety and nausea during administration sessions,AUD patients [2]; compared with diphenhydramine,reported more frequently
same,Heart rate relative to diphenhydramine group,AUD patients [2]; during medication sessions,higher
same,Systolic and diastolic blood pressure relative to diphenhydramine,AUD patients [2]; during medication sessions,increased
same,Participants reporting passive suicidal ideation during a medication session,"AUD patients [2]; for 15 minutes, resolved without sequelae",One
same,Persistent disturbances suggestive of psychosis or hallucinogen persisting perception disorder,AUD patients [2]; in vivo,no persistent disturbances
same,Severity of adverse events associated with administration,AUD patients [2]; in vivo,mostly mild and self-limiting
same,Participants given diazepam 10 mg by mouth for anxiety,AUD patients [2]; second medication session,Two
same,"Headaches, participants affected / treated",AUD patients [2]; [5],21/48
same,"Headaches, percent of participants",AUD patients [2]; [5],43.8%
same,"Total Problems score, between-group Hedges' g",AUD patients [3],0.67
same,"Total Problems score, between-group mean difference",AUD patients [3],6.41
